Each block holds one compound with its values, some of them ahead of it. Bridge positions count the residues as written; N and C are the ends. Square brackets hold non-standard residues; d marks the D form. Peptide text beside a SMILES is read from it.
Columns and labels:
NbALFA = experiment: SPR measurements of NbALFA binding (Biacore T200, multi cycle kinetics, 1:1 binding model); details: for Kd / ka / kd: 25° C., HBS-EP+ buffer, biotinylated NbALFA captured; for binding with respect to NbALFA: in words
Method: Affinity measurements were performed using a Biacore T200 (GE Healthcare, Biacore T200 control Software 3.2). […] A freshly docked Biotin CAPture chip was rehydrated overnight in the instrument (standby mode). […] The immobilization of the Nanobody was done for 180 s at 10 μL/min on FC2 followed by quenching of unbound streptavidin by 0.1 mM biocytin for 60 s and 30 μL/min on both flow cells. […] After each cycle, the surface was regenerated for 120 s with 10 μL/min using regeneration solution. All measurements were performed at 25° C. using HBS-EP+ buffer (Cytiva Europe, Cat. no BR100669). The control responses from FC1 were subtracted by the sample measurement in FC2 (FC2−FC1) followed by subtraction of the 0 nM blank injection. Resulting binding curves of this multi cycle kinetic experiment were fitted using the Biacore T200 Evaluation Software 3.2 and a 1:1 binding model.

[1] = Plasma stability, mouse plasma; details: for Conc. (% of T0) / Mean (compound concentration) / Tube 2 (compound concentration) / Tube 3 (compound concentration) / Tube 1 (compound concentration) / half-life: mouse plasma, 37° C.; for half-life: plasma
Method: (§1) Plasma stability measurements were performed by spiking 5 μl of a 1 mM compound stock solution in DMSO into 495 μl of human or mouse Li-heparin plasma (Innovative Research, Cat. No, IPLALIH5OML (human) and IMS-BC-N (Balb C mouse). The spiked plasma was distributed in 50 μl aliquots into capped PCR tubes for incubation at 37° C. At each time point (0, 2, 6, 24 hours*) 3*aliquots were withdrawn from the incubator. Enzymatic reactions were quenched directly after withdrawal by adding 100 μl of acetonitrile/formic acid=99/1 (v/v). Quenched samples were stored at ambient temperature until the end of the incubation period (24 hrs*). After centrifugation, the supernatant was transferred into fresh vials and analyzed by LC-MS/MS in ESI positive mode (Waters ACQUITY UPLC I-Class System (SM-FTN) with Xevo TQD triple quadrupole mass spectrometer with control software Waters MassLynx). […] Values below the limit of quantification (0.1 μM) and outliers of triplicate results were excluded from further calculations. An exponential regression curve was fitted onto the concentration results. Half-life times were calculated from the slope of the regression curve (t1/2=ln(2)/slope).
(§2) For some samples, as indicated below, the incubation time was 6 hours. The 24 hour data was measured in triplicates whereas the 6 hour data was measured in duplicates.

[2] = Plasma stability, human plasma; details: for half-life: plasma
Method: as §1, §2

anti-ALFA VHH = experiment: binding affinity to the anti-ALFA VHH (log(agonist) vs. response, variable slope); details: for LogEC50: best-fit values, log(agonist) vs. response, variable slope; for EC50: binding to anti-ALFA VHH
[3] = Pharmacokinetic study in mouse, intravenous bolus, plasma LC-MS/MS, non-compartmental analysis; details: for AUC(0-inf): AUC0-inf; for AUC(0-t): AUC0-t
Method: C57BL/6NRj mice were obtained from Janvier Labs, France. In this study, approximately 8-week-old female mice were used.
Prior to administration into the lateral tail vein, the body weight of the animals was determined to calculate the individual volume of the injecting compound (5 mL/kg body weight). The injection, as well as the blood sampling, were carried out under short anesthesia (0.7 L/min O2, 1.7 L/min N2O, 2% Isoflurane). Blood was sampled from the retro-orbital plexus using microhematocrit capillary (Ø 0.8 mm) and collected into K3EDTA tubes, at the time points indicated in Table 10.
The plasma was separated by centrifugation (10,000×g; 10 min; 4° C.), aliquoted into microtubes and stored at −80° C.
20 μl of each plasma sample was transferred into PCR tubes. 80 μl IS (internal standard)-solution in acetonitrile+1% FA was added for protein precipitation.
The sample tubes were sealed with pierceable cap mats and vortexed. After homogenization for 5 min in an ultrasonic bath the samples were centrifuged at 3000 rpm at ambient temperature for 15 min. 1 μl supernatant was injected into the instrument for LC-MS/MS analysis. For LC-MS/MS quantification a ExionLC™ UHPLC coupled to a QTRAP® 6500+ mass spectrometer (Sciex) was used in ESI positive mode. Parameters for mass spectrometry were listed in the tables below, Chromatographic separation was achieved on a ACQUITY UPLC BEH C18 column (Waters, 1.7 μm, 2.1×50 mm).
Compound concentrations in plasma samples were calculated using a 10-point calibration curve in plasma over a concentration range of 1 to 1000 ng/ml. QC samples of 1, 10, 100, 1000 ng/ml were analyzed before and after each dose group. Samples exceeding the upper limit of quantification (1000 ng/ml) were re-analyzed after 10-fold dilution in blank plasma. All calculations were performed in Sciex OS Version 1.7.0.36606 and MS-EXCEL®.
Pharmacokinetic parameters were calculated for both compounds using the software Kinetica (version 4.4.1, Thermo Scientific) applying a non-compartmental model (NCA).

[4] = Balb C, mouse, Li-heparin plasma
[5] = timepoint 0 h, calibration range 0.1 to 10 μM
[6] = mouse, Half-life time, incubation 24 h (triplicates) or 6 h (duplicates)
[7] = human plasma, 37° C., timepoint 0 h
[8] = human plasma, 37° C., timepoint 2 h
[9] = human plasma, 37° C., timepoint 6 h
[10] = human plasma, 37° C., timepoint 24 h
[11] = human, Half-life time, human plasma, 37° C., incubation 24 h (triplicates) or 6 h (duplicates)
[12] = in vivo, iv, 3 mg/kg, single i.v.
[13] = in vivo, iv, normalized to a dose of 1 mg/kg, given 3 mg/kg i.v.

Compound: CC(=O)N[C@@H](CO)C(=O)N[C@@H](CCCNC(=N)N)C(=O)N[C@@H](CC(C)C)C(=O)N[C@@H](CCC(=O)O)C(=O)N[C@H]1CCC(=O)NCCCC[C@@H](C(=O)N[C@@H](CCCNC(=N)N)C(=O)N[C@@H](CCCNC(=N)N)C(=O)N[C@@H](CC(C)C)C(=O)N[C@H](C(=O)N[C@@H](CCC(=O)O)C(N)=O)[C@@H](C)O)NC(=O)[C@H](CC(C)C)NC(=O)[C@H](CCC(=O)O)NC1=O [SD15192, Ac-Ser-Arg-Leu-Glu-(cyclo5)Glu-Glu-Leu-(cyclo8)Lys-Arg-Arg-Leu-Thr-Glu-NH2] (Ac-SRLEEELKRRLTE-NH2; lactam 5-8)
Kd (NbALFA): 0.0551 nM
ka (NbALFA): 1.05e+07 M⁻¹ s⁻¹
kd (NbALFA): 0.000577 s⁻¹
remaining at 2 h, 10 µM [1, 4]: 85.9%
remaining at 6 h, 10 µM [1, 4]: 65.7%
remaining at 24 h, 10 µM [1, 4]: 23.9%
Conc. (% of T0) ([1]; timepoint 0 h): 100.0 % of T0
Mean (compound concentration) ([1]; timepoint 0 h): 2.70
Tube 2 (compound concentration) ([1]; timepoint 0 h): 2.705
Tube 3 (compound concentration) ([1]; timepoint 0 h): 2.658
Tube 1 (compound concentration) [1, 5]: 2.731
Mean (compound concentration) ([1]; timepoint 2 h): 2.32
Tube 1 (compound concentration) ([1]; timepoint 2 h): 2.366
Tube 2 (compound concentration) ([1]; timepoint 2 h): 2.256
Tube 3 (compound concentration) ([1]; timepoint 2 h): 2.33
Mean (compound concentration) ([1]; timepoint 6 h): 1.77
Tube 1 (compound concentration) ([1]; timepoint 6 h): 1.851
Tube 2 (compound concentration) ([1]; timepoint 6 h): 1.679
Tube 3 (compound concentration) ([1]; timepoint 6 h): 1.791
Mean (compound concentration) ([1]; timepoint 24 h): 0.64
Tube 1 (compound concentration) ([1]; timepoint 24 h): 0.637
Tube 2 (compound concentration) ([1]; timepoint 24 h): 0.656
Tube 3 (compound concentration) ([1]; timepoint 24 h): 0.638
half-life [1, 6]: 707 min
Conc. (% of T0) [2, 7]: 100.0 % of T0
Mean (compound concentration) [2, 7]: 2.56
Tube 2 (compound concentration) [2, 7]: 2.471
Tube 3 (compound concentration) [2, 7]: 2.553
Tube 1 (compound concentration) ([2]; human plasma, 37° C., timepoint 0 h, calibration range 0.1 to 10 μM): 2.667
Mean (compound concentration) [2, 8]: 1.76
Tube 1 (compound concentration) [2, 8]: 1.788
Tube 2 (compound concentration) [2, 8]: 1.757
Tube 3 (compound concentration) [2, 8]: 1.731
Mean (compound concentration) [2, 9]: 0.88
Tube 1 (compound concentration) [2, 9]: 0.876
Tube 2 (compound concentration) [2, 9]: 0.868
Tube 3 (compound concentration) [2, 9]: 0.883
Tube 1 (compound concentration) [2, 10]: 0.031
Tube 2 (compound concentration) [2, 10]: 0.036
Tube 3 (compound concentration) [2, 10]: 0.046
remaining at 2 h, 10 µM ([2]; human, human Li-heparin plasma): 68.6%
remaining at 6 h, 10 µM ([2]; human, human Li-heparin plasma): 34.2%
half-life [2, 11]: 233 min
LogEC50 (anti-ALFA VHH): 0.7765
EC50 (anti-ALFA VHH): 5.98 nM

half-life ([3]; female, C57BL/6NRj, plasma, iv, 3 mg/kg): 6.69 min
area under the curve (AUC) compared to the linear alpha compound ([3]; i.v., in words): much higher
clearance compared to the linear alpha compound ([3]; i.v., in words): drastically reduced
MRT inf ([3]; in vivo, iv, 3 mg/kg): 4.5 min
MRT last ([3]; in vivo, iv, 3 mg/kg): 4.47 min
Tmax ([3]; in vivo, iv, 3 mg/kg): 1 min
clearance ([3]; in vivo, iv, 3 mg/kg): 52.8 mL/min/kg
AUC(0-inf) [3, 12]: 948 ng·h/mL
AUC(0-t) [3, 12]: 947 ng·h/mL
C0 ([3]; in vivo, iv, 3 mg/kg, C0, single i.v.): 15400 ng/mL
Cmax [3, 12]: 12700 ng/mL
Vd ([3]; in vivo, iv, 3 mg/kg, Vss, single i.v., 3 mg/kg): 0.237 L/kg
Vd ([3]; in vivo, iv, 3 mg/kg, Vz, single i.v.): 0.509 L/kg
AUC(0-inf) [3, 13]: 316 ng·h/mL
AUC(0-t) [3, 13]: 316 ng·h/mL
C0 ([3]; in vivo, iv, C0, normalized to a dose of 1 mg/kg, given 3 mg/kg i.v.): 5130 ng/mL
Cmax [3, 13]: 4240 ng/mL
AUCextra ([3]; single i.v., 3 mg/kg): 0.05%
Vc ([3]; single i.v., 3 mg/kg): 195 mL/kg
t1/2effective ([3]; single i.v., 3 mg/kg): 3.10 min
t1/2initial ([3]; single i.v., 3 mg/kg): 2.41 min
λinitial ([3]; single i.v., 3 mg/kg): 0.29 min⁻¹
λterminal ([3]; single i.v., 3 mg/kg): 0.10 min⁻¹
Kd (NbALFA): 0.0194 nM
ka (NbALFA): 1.86e+07 M⁻¹ s⁻¹
kd (NbALFA): 0.000361 s⁻¹
binding with respect to NbALFA (NbALFA): very good binding
Compound: CC(=O)N1CCC[C@H]1C(=O)N[C@@H](CO)C(=O)N[C@@H](CCCNC(=N)N)C(=O)N[C@@H](CC(C)C)C(=O)N[C@@H](CCC(=O)O)C(=O)N[C@H]1CCC(=O)NCCCC[C@@H](C(=O)N[C@@H](CCCNC(=N)N)C(=O)N[C@@H](CC(C)C)C(=O)N[C@H](C(=O)N[C@@H](CCC(=O)O)C(N)=O)[C@@H](C)O)NC(=O)[C@H](CCCNC(=N)N)NC(=O)[C@H](CC(C)C)NC(=O)[C@H](CCC(=O)O)NC1=O [SD15341, Ac-Pro-Ser-Arg-Leu-Glu-(cyclo6)Glu-Glu-Leu-Arg-(cyclo10)Lys-Arg-Leu-Thr-Glu-NH2] (Ac-PSRLEEELRKRLTE-NH2; lactam 6-10)

Kd (NbALFA): 0.038 nM
ka (NbALFA): 1.35e+07 M⁻¹ s⁻¹
kd (NbALFA): 0.000513 s⁻¹
binding with respect to NbALFA (NbALFA): very good binding
remaining at 1 h, 10 µM [1, 4]: 86.9%
remaining at 3 h, 10 µM [1, 4]: 73.7%
remaining at 6 h, 10 µM [1, 4]: 61.1%
Conc. (% of T0) ([1]; timepoint 0 h): 100.0 % of T0
Mean (compound concentration) ([1]; timepoint 0 h): 3.198
Tube 2 (compound concentration) ([1]; timepoint 0 h): 3.173
Tube 1 (compound concentration) [1, 5]: 3.223 x
Mean (compound concentration) ([1]; timepoint 1 h): 2.780
Tube 1 (compound concentration) ([1]; timepoint 1 h): 2.668 x
Tube 2 (compound concentration) ([1]; timepoint 1 h): 2.892
Mean (compound concentration) ([1]; timepoint 3 h): 2.357
Tube 1 (compound concentration) ([1]; timepoint 3 h): 2.398 x
Tube 2 (compound concentration) ([1]; timepoint 3 h): 2.316
Mean (compound concentration) ([1]; timepoint 6 h): 1.955
Tube 1 (compound concentration) ([1]; timepoint 6 h): 2.018 x
Tube 2 (compound concentration) ([1]; timepoint 6 h): 1.892
half-life ([1]; mouse, Flag (half-life, assay exceeded)): > 360 min
half-life [1, 6]: 524 min
half-life ([2]; human, Flag (half-life, assay exceeded), human plasma, 37° C.): > 360 min
half-life [2, 11]: 964 min
Compound: CC(=O)N1CCC[C@H]1C(=O)N[C@@H](CO)C(=O)N[C@@H](CCCNC(=N)N)C(=O)N[C@@H](CC(C)C)C(=O)N[C@@H](CCC(=O)O)C(=O)N[C@H]1CCC(=O)NCCCC[C@H](C(=O)N[C@@H](CCCNC(=N)N)C(=O)N[C@@H](CC(C)C)C(=O)N[C@H](C(=O)N[C@@H](CCC(=O)O)C(N)=O)[C@@H](C)O)NC(=O)[C@H](CCCNC(=N)N)NC(=O)[C@H](CC(C)C)NC(=O)[C@H](CCC(=O)O)NC1=O [SD15808, Ac-Pro-Ser-Arg-Leu-Glu-(cyclo6)Glu-Glu-Leu-Arg-(cyclo10)dLys-Arg-Leu-Thr-Glu-NH2] (Ac-PSRLEEELR[dK]RLTE-NH2; lactam 6-10)

Compound: Ac-SRLEEELRRRLTE-NH2 [SD15197, Ac-Ser-Arg-Leu-Glu-Glu-Glu-Leu-Arg-Arg-Arg-Leu-Thr-Glu-NH2, reference compound]
Kd (NbALFA): 0.0117 nM
ka (NbALFA): 5.05e+07 M⁻¹ s⁻¹
kd (NbALFA): 0.000593 s⁻¹
LogEC50 (anti-ALFA VHH): 0.4145
EC50 (anti-ALFA VHH): 2.6 nM
EC50 (anti-ALFA VHH; listed as parent linear ALFA peptide): 2.6 nM
